target: T1, TrkA(h) (Homo sapiens, UniProt P04629); experiment: KinaseProfiler (Millipore) radiometric kinase assay, TrkA(h); format: biochemical; details: compound concentration 1 μM
T1 construct: purchased Millipore (KinaseProfiler Service)
Protocol: The KinaseProfiler™ Service Assay Protocols (Millipore) were used to test the kinase inhibiting activity of the novel compounds from this invention. To do this, the buffer composition was as follows: 20 mM MOPS, 1 mM EDTA, 0.01% Brij-35, 5% Glycerol, 0.1% β-mercaptoethanol, 1 mg/mL BSA. Test compounds were initially dissolved in DMSO at the desired concentration, then serially diluted into the kinase assay buffer. In a final reaction volume of 25 μL, TrkA(h) (5-10 mU) is incubated with 8 mM MOPS pH 7.0, 0.2 mM EDTA, 200 μM LRRASLG (Kemptide), 10 mM MgAcetate and [γ^33P-ATP]. The reaction was initiated by the addition of the MgATP mix. After incubation for 40 minutes at room temperature, the reaction was stopped by addition of 5 μL of a 3% phosphoric acid solution. 10 μL of the reaction was then spotted onto a P30 filtermat and washed three times for 5 minutes in 50 mM phosphoric acid and once in methanol prior to drying and scintillation counting. Wells containing substrate but no kinase and wells containing a phosphopeptide control were used to set 0% and 100% phosphorylation value, respectively.

T1 sequence (P04629 33-796): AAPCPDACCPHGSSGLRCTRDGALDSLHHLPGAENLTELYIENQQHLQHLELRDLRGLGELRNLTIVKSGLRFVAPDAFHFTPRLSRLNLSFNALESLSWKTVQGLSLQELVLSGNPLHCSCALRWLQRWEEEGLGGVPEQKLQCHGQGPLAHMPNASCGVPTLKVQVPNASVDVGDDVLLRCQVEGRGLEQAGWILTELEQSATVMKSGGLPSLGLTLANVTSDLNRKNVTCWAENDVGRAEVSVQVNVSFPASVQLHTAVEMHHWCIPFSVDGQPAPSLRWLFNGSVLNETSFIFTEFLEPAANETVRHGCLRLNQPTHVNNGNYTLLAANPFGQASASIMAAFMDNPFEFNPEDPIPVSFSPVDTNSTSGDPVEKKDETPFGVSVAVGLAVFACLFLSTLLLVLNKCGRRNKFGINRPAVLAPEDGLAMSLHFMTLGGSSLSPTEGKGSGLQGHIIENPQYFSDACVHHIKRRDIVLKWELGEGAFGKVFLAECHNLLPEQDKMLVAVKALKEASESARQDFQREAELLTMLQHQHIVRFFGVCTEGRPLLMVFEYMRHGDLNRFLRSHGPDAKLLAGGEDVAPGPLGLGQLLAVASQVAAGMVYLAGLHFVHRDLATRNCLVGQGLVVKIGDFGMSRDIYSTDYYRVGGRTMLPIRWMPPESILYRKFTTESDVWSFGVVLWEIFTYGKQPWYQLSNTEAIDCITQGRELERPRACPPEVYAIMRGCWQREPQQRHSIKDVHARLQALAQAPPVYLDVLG

Row | Structure (SMILES) | inhibition at 1 µM | % Inhibition@ 1 μM (TrkA(h))
1 | CC(Nc1cc(Nc2cc(C3CC3)[nH]n2)ncn1)c1c(F)cccc1F (single isomer, unassigned) [Example 30] | 100% | 
2 | C[C@H](Nc1cc(Nc2cc(C3CC3)[nH]n2)ncn1)c1ccc(F)cc1 [Example 23, (S)—N4-(5-cyclopropyl-1H-pyrazol-3-yl)-N6-(1-(4-fluorophenyl)ethyl)pyrimidine-4,6-diamine] | 99% | 
3 | Cc1c(Nc2cc(C3CC3)[nH]n2)ncnc1N[C@@H](C)c1ccc(F)cc1 [Example 24] | 31% | 
4 | COc1c(Nc2cc(C3CC3)[nH]n2)ncnc1N[C@@H](C)c1ccc(F)cc1 [Example 25, (S)—N4-(5-cyclopropyl-1H-pyrazol-3-yl)-N6-(1-(4-fluorophenyl)ethyl)-5-methoxypyrimidine-4,6-diamine] | 0% | 
5 | C[C@H](Nc1ncnc(Nc2cc(C3CC3)[nH]n2)c1C#N)c1ccc(F)cc1 [Example 26] | 49% | 
6 | C[C@H](Nc1ncnc(Nc2cc(C3CC3)[nH]n2)c1F)c1ccc(F)cc1 [Example 27] | 87% | 
7 | C[C@H](Nc1ncnc(Nc2cc(C3CC3)[nH]n2)c1Cl)c1ccc(F)cc1 [Example 28, (S)-5-chloro-N4-(5-cyclopropyl-1H-pyrazol-3-yl)-N6-(1-(4-fluorophenyl)ethyl)pyrimidine-4,6-diamine] | 56% | 
8 | CN1CCN(c2ccc(CNc3ncnc(Nc4cc(C5CC5)[nH]n4)c3C#N)cc2)CC1 [Example 29] | -5% | 
9 | CC(Nc1cc(Nc2cc(C3CC3)n(C(=O)OC(C)(C)C)n2)ncn1)c1c(F)cccc1F (stereo not drawn) [Example 31] | 99% | 
10 | CC(Nc1cc(Nc2cc(C3CC3)[nH]n2)ncn1)c1ccc(F)cc1F (stereo not drawn) [Example 32, N4-(5-cyclopropyl-1H-pyrazol-3-yl)-N6-(1-(2,4-difluorophenyl)ethyl)pyrimidine-4,6-diamine] | 104% | 
11 | C[C@@H](Nc1cc(Nc2cc(C3CC3)[nH]n2)ncn1)c1ccc(F)cc1F [Example 33] | 60% | 
12 | C[C@H](Nc1cc(Nc2cc(C3CC3)[nH]n2)ncn1)c1ccc(F)cc1F [Example 34] | 101% | 
13 | CC(Nc1cc(Nc2cc(C3CC3)[nH]n2)ncn1)c1cc(F)ccc1F (stereo not drawn) [Example 35] | 99% | 
14 | CC(Nc1cc(Nc2cc(C3CC3)[nH]n2)ncn1)c1ccc(F)cc1Cl (stereo not drawn) [Example 36] | 101% | 
15 | CC(Nc1cc(Nc2cc(C3CC3)[nH]n2)ncn1)c1ccc(F)c(Cl)c1 (stereo not drawn) [Example 37] | 97% | 
16 | c1ccc(C(CN2CCOCC2)Nc2cc(Nc3cc(C4CC4)[nH]n3)ncn2)cc1 (stereo not drawn) [Example 38] | 71% | 
17 | CN1CCN(CC(Nc2cc(Nc3cc(C4CC4)[nH]n3)ncn2)c2ccccc2)CC1 (stereo not drawn) [Example 39] | 7% | 
18 | OCC(Nc1cc(Nc2cc(C3CC3)[nH]n2)ncn1)c1ccc(F)cc1 (stereo not drawn) [Example 40] | 101% | 

Row | Structure (SMILES) | inhibition at 1 µM | % Inhibition@ 1 μM (TrkA(h))
19 | CC(c1cc(F)ccc1F)N(C)c1cc(Nc2cc(C3CC3)[nH]n2)ncn1 (stereo not drawn) [Example 42] | 95% | 
20 | CC(Nc1cc(Nc2cc(C3CC3)[nH]n2)ncn1)c1ccc(F)cn1 (stereo not drawn) [Example 43, N4-(5-cyclopropyl-1H-pyrazol-3-yl)-N6-(1-(5-fluoropyridin-2-yl)ethyl)pyrimidine-4,6-diamine] | 95% | 
21 | CC(Nc1cc(Nc2cc(C3CC3)[nH]n2)ncn1)c1ccc(F)cn1 (stereo not drawn) [Example 44, N4-(5-cyclopropyl-1H-pyrazol-3-yl)-N6-(1-(5-fluoropyridin-2-yl)ethyl)pyrimidine-4,6-diamine] |  | 98%
22 | CC(Nc1cc(Nc2cc(C3CC3)[nH]n2)ncn1)c1ccc(F)cn1 (stereo not drawn) [Example 45, N4-(5-cyclopropyl-1H-pyrazol-3-yl)-N6-(1-(5-fluoropyridin-2-yl)ethyl)pyrimidine-4,6-diamine] |  | 100%
23 | CC(Nc1cc(Nc2cc(C3CC3)[nH]n2)ncn1)c1ccc(F)cn1 (stereo not drawn) [Example 46, N4-(5-cyclopropyl-1H-pyrazol-3-yl)-N6-(1-(5-fluoropyridin-2-yl)ethyl)pyrimidine-4,6-diamine] |  | 98%
24 | CC(Nc1cc(Nc2cc(C3CC3)n(C)n2)ncn1)c1ccc(F)cc1F (stereo not drawn) [Example 47] | 25% | 
25 | CCn1nc(Nc2cc(NC(C)c3ccc(F)cc3F)ncn2)cc1C1CC1 (stereo not drawn) [Example 48] | 10% | 
26 | CC(Nc1cc(Nc2ccn(C3CCOCC3)n2)ncn1)c1ccc(F)cc1F (stereo not drawn) [Example 49] | 5% | 
27 | Cc1cc(Nc2cc(NC(C)c3ccc(F)cc3F)ncn2)n[nH]1 (stereo not drawn) [Example 50] | 99% | 
28 | CCCc1cc(Nc2cc(NC(C)c3ccc(F)cc3F)ncn2)n[nH]1 (stereo not drawn) [Example 51] | 100% | 
29 | CC(Nc1cc(Nc2cc(C3CC3)[nH]n2)ncn1)c1ccc(F)cn1 (stereo not drawn) [Example 52, N4-(5-cyclopropyl-1H-pyrazol-3-yl)-N6-(1-(5-fluoropyridin-2-yl)ethyl)pyrimidine-4,6-diamine] |  | 101%
30 | C[C@H](Nc1cc(Nc2cc(C3CC3)[nH]n2)nc(N)n1)c1ccc(F)cc1F [Example 53] | 100% | 
31 | C[C@H](Nc1cc(Nc2cc(C3CC3)[nH]n2)ncn1)c1ccc(F)cc1Cl [Example 54] | 100% | 
32 | COCC(Nc1cc(Nc2cc(C3CC3)[nH]n2)ncn1)c1ccccc1 (stereo not drawn) [Example 55] | 85% | 
33 | CN(C)CC(Nc1cc(Nc2cc(C3CC3)[nH]n2)ncn1)c1ccccc1 (stereo not drawn) [Example 56] | 67% | 
34 | CC(Nc1cc(Nc2cc(C3CC3)[nH]n2)ncn1)c1ccc(F)cn1 (stereo not drawn) [Example 57, N4-(5-cyclopropyl-1H-pyrazol-3-yl)-N6-(1-(5-fluoropyridin-2-yl)ethyl)pyrimidine-4,6-diamine] |  | 95%
35 | C[C@H](Nc1ncnc(Nc2cc(C3CC3)[nH]n2)n1)c1ccc(F)cc1F [Example 58] | 100% | 
36 | C[C@H](Nc1ncnc(Nc2cc(C3CC3)[nH]n2)n1)c1ccc(F)cc1Cl [Example 59] | 100% | 
